Experimental data as given in patent US9611248B2, “Chemical compounds” (Syngenta Participations AG, priority 2013, dated 2017).

Tested on: a variety of test species
Assay: Post-emergence herbicidal activity
Format: in vivo
Parameters: key to ABUTH (Abutilon theophrasti) damage score / AMARE (Amaranthus retroflexus) damage score / ALOMY (Alopecurus myosuroides) damage score / ECHCG (Echinochloa crus-galli) damage score / ZEAMX (Zea mays) damage score / SOLNI (Solanum nigrum) damage score: 0 = no damage to plant, 5 = total damage to plant
Settings: rate 1000 g/ha, evaluated after 13 days
Procedure, shortened: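 Plants grown for 8 days in pots were sprayed post-emergence with compound in acetone/water (50:50) containing 0.5% Tween 20. They were kept in a glasshouse at 24/16 °C day/night, 14 h light, 65% humidity, watered twice daily. Damage was scored after 13 days (0 none to 5 total).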

| Compound | ABUTH (Abutilon theophrasti) damage score | ALOMY (Alopecurus myosuroides) damage score | AMARE (Amaranthus retroflexus) damage score | ECHCG (Echinochloa crus-galli) damage score | SETFA (Setaria faberi) damage score | ZEAMX (Zea mays) damage score |
| --- | --- | --- | --- | --- | --- | --- |
| CCOC1=C(C)C(=O)N(c2cc(C(F)(F)F)ccn2)C1O (stereo not drawn) [AD45, 3-ethoxy-2-hydroxy-4-methyl-1-[4-(trifluoromethyl)-2-pyridyl]-2H-pyrrol-5-one] | 5 | 4 | 5 | 5 | 3 | 1 |
| COC1=C(C)C(=O)N(c2ccc(OC(F)(F)F)cn2)C1O (stereo not drawn) [AD47] | 5 | 3 | 5 | 3 | 4 | 0 |
| COC1=C(C)C(=O)N(c2cc(C(F)(F)F)c(I)cn2)C1O (stereo not drawn) [AD51] | 5 | 4 | 5 | 5 | 5 | 1 |
| COC1=C(C)C(=O)N(c2cc(C(C)(C)CCl)ccn2)C1O (stereo not drawn) [AD52] | 5 | 5 | 4 | 5 | 5 | 1 |
| COC1=C(C)C(=O)N(c2cc(C(F)(F)F)c(C(=O)NC(C)C)cn2)C1O (stereo not drawn) [AD53] | 5 | 5 | 5 | 5 | 5 | 5 |
| COC1=C(C)C(=O)N(c2cc(C(F)(F)F)c(C(=O)NC(C)(C)C)cn2)C1O (stereo not drawn) [AD54] | 5 | 5 | 5 | 5 | 5 | 5 |
| CCOc1cnc(N2C(=O)C(C)=C(OC)C2O)cc1C(F)(F)F (stereo not drawn) [AD55] | 5 | 5 | 5 | 5 | 5 | 3 |
| COC1=C(C)C(=O)N(c2cc(C(F)(F)F)c(OCC(C)C)cn2)C1O (stereo not drawn) [AD56] | 5 | 5 | 5 | 5 | 5 | 0 |
| COC1=C(C)C(=O)N(c2cc(C(F)(F)F)c(OCC3CCCO3)cn2)C1O (stereo not drawn) [AD57] | 5 | 4 | 5 | 5 | 5 | 1 |
| COC1=C(C)C(=O)N(c2cc(C(F)(F)F)c(/C(C)=C\C#N)cn2)C1O (stereo not drawn) [AD58, (Z)-3-[6-(2-hydroxy-3-methoxy-4-methyl-5-oxo-2H-pyrrol-1-yl)-4-(trifluoromethyl)-3-pyridyl]but-2-enenitrile] | 5 | 4 | 5 | 5 | 5 | 2 |
| COC1=C(C)C(=O)N(c2cc(C(F)(F)F)c(-c3ccc(F)cc3)cn2)C1O (stereo not drawn) [AD59] | 5 | 4 | 5 | 4 | 5 | 1 |
| COC1=C(C)C(=O)N(c2cc(C)c(-c3ccc(F)cc3)cn2)C1O (stereo not drawn) [AD60] | 5 | 2 | 5 | 1 | 4 | 1 |
| COC1=C(C)C(=O)N(c2cc(C)c(-c3ccsc3)cn2)C1O (stereo not drawn) [AD61] | 5 | 1 | 5 | 3 | 4 | 1 |
| CCc1cc(N2C(=O)C(C)=C(OC)C2O)ncc1-c1ccc(F)cc1 (stereo not drawn) [AD62] | 4 | 3 | 5 | 3 | 5 | 0 |
| COC1=C(C)C(=O)N(c2cc(C)c(-c3ccccc3)cn2)C1O (stereo not drawn) [AD63] | 5 | 3 | 5 | 3 | 5 | 1 |
